The text below walks through data of patent US20240316147A1, “PHARMACEUTICAL COMPOSITION COMPRISING AN APL TYPE PEPTIDE” (CENTRO DE INGENIERIA GENÉTICA Y BIOTECNOLOGIA, priority 2017, published 2024).

Entries after “also recorded” stand apart in the source; their conditions may differ. Where no end group is shown, it is not given here.

Holding throughout (assay type): physicochemical
The nature of data set [1]: Stability of the peptide in 50 mM sodium phosphate buffer pH 7.4 at 37° C. (RP-HPLC, mass spectrometry). The method, then:
FIG. 1. Chromatographic profile of APL-type peptide identified as Seq ID No. 1 dissolved in 50 mM sodium phosphate buffer, pH 7.4. The profile was obtained by reverse phase chromatography (RP-HPLC), (A) time 0, (B) 15 days of storage at 37° C.
APL type peptide was obtained by chemical synthesis. […] To study the causes of such effect, peptide was dissolved in that buffer and stored at 37° C. for 15 days. Subsequently, several aliquots were analyzed periodically by RP-HPLC. Presence of contaminating species was verified, these were purified and analyzed by mass spectrometry, and several fractions were identified that could correspond to degradations.
In order to accelerate the degradation, peptide was incubated under stress conditions that allow the possible degraded species of the peptide to be obtained fast and in high proportions. Fractions collected after RP-HPLC were characterized by mass spectrometry.

A short description of data set [2]: Molecular exclusion chromatography-HPLC of the peptide in water, PBS and sucrose. The note with it: dissolved in water (control). An excerpt:
FIG. 3. Molecular exclusion chromatography—HPLC of the peptide of Seq ID No. 1 dissolved in water (A), in phosphate buffered saline (PBS) (B) and in sucrose (C).
In PBS the peptide eluted in a shorter retention time, compared to the sample dissolved in water and in sucrose solution.

Data set [3] can be described thus: Solubility of the peptide in buffers and excipients, determined by RP-HPLC. On the procedure: Different ionic species, pH and excipients were evaluated, to achieve the total solubility of the peptide, and a high chemical stability. Solubility of peptide was evaluated with different excipients, which included different ionic salts, sugars, polyols, amino acids and detergents.
First stage of the formulation development included the evaluation of buffer species influence and pH on chemical and physical stability of the peptide.

The nature of data set [4]: Effect of pH on concentration and purity of the peptide in 50 mM sodium acetate buffer (RP-HPLC). Particulars: 2.5 mg/mL in 50 mM sodium acetate buffer, pH 3.0, 4.0, 5.0; 4° C. or 37° C., 15 days. The method, then: FIG. 4. Effect of pH on concentration of peptide identified as Seq ID No. 1, in samples formulated and stored at 4° C. (A) and at 37° C. (B).
FIG. 5. Effect of pH on the purity of the peptide identified as Seq ID No. 1, in samples formulated and stored at 37° C.
Three pH values were analyzed: 3.0; 4.0 and 5.0. Samples were filtered and stored at 4° C. or at 37° C., for 15 days. Evaluation of stability and concentration of peptide was carried out by RP-HPLC. Results of concentration of peptide stored at 4° C. or at 37° C., respectively, are shown in FIGS. 4A and 4B, respectively. […] At 37° C., precipitation process is accelerated.
Chemical integrity of peptide (expressed as % purity in RP-HPLC) was greater than 95%, for the samples formulated in three pH values, when these were stored at 4° C., for 15 days.

For “SIDLKDKYKNIGAKLVQLVANNTNEEA [peptide identified as Seq ID No. 1]”, in data set [1] (50 mM sodium phosphate buffer pH 7.4, 15 days at 37° C.), the “degraded species identified by mass spectrometry (fractions 1, 2 and 4)” value is recorded as “deamidated variants of the peptide”. For the same sequence, the “stability of peptide in solution” value in data set [1] (50 mM sodium phosphate buffer, pH 7.4) is on record as “progressively destabilized”. The solubility of peptide entry in data set [2] was “good solubility”; in data set [3] (in other ionic species: sodium citrate, sodium glutamate and Tris-HCl) it was “very poorly soluble”; in data set [3] (in sodium phosphate buffer (50 mM, pH 7.4)) it was “very poorly soluble; also recorded: poorly soluble”; in data set [3] (in solutions of sucrose or trehalose, peptide 1-10 mg/mL) it was “highest solubility”; in data set [3] (sodium acetate buffer (acetic acid and sodium hydroxide), 10-70 mM), “best solubilized the peptide”. Moreover, the “physical stability of peptide” value in data set [4] is given as “greater at pH 3.0”.
